From BindingDB's records for doi:10.1021/jm9705723 (Wayne State University School of Medicine, 1998)

Experiments:
[1] = Inhibitory concentration against human immunodeficiency virus type 1 (HIV-1 strain IIIB RT) reverse transcriptase was determined by triplicate assay at high (~1 pfu/cell) multiplicity of […] (moi)
[2] = Inhibitory concentration against human immunodeficiency virus type 1 (HIV-1 strain IIIB RT) reverse transcriptase was determined by triplicate assay at low (~0.1 pfu/cell) multiplicity of […] (moi)

| SMILES | IC50 [1] [µM] | IC50 [2] [nM] |
| --- | --- | --- |
| Cc1cn([C@H]2C[C@H](N=[N+]=[N-])[C@@H](CO)O2)c(=O)[nH]c1=O [1-((2R,4S,5S)-4-Azido-5-hydroxymethyl-tetrahydro-furan-2-yl)-5-methyl-1H-pyrimidine-2,4-dione] | 0.017 | 3 |
| Nc1nc2c(ncn2/C=C2\CC2CO)c(=O)[nH]1 (stereo unspecified) [2-Amino-9-[2-hydroxymethyl-cycloprop-(E)-ylidenemethyl]-1,9-dihydro-purin-6-one] | > 30 | 1900 |
| Nc1nc2c(ncn2/C=C2/CC2CO)c(=O)[nH]1 (stereo unspecified) [2-Amino-9-[2-hydroxymethyl-cycloprop-(Z)-ylidenemethyl]-1,9-dihydro-purin-6-one] | > 30 | 1100 |
| Nc1ncnc2c1ncn2/C=C1/CC1CO (stereo unspecified) [[2-(6-Amino-purin-9-ylmethylene)-cyclopropyl]-methanol] | 20 | 800 |
| Nc1nc(Cl)c2ncn(/C=C3\CC3CO)c2n1 (stereo unspecified) [{2-[1-(2-Amino-6-chloro-purin-9-yl)-meth-(E)-ylidene]-cyclopropyl}-methanol] |  | > 100000 |
| Nc1ncnc2c1ncn2/C=C1\CC1CO (stereo unspecified) [{2-[1-(6-Amino-purin-9-yl)-meth-(E)-ylidene]-cyclopropyl}-methanol] | > 100 | 14000 |
